Test system: Pyrenophora teres
Assay: Pyrenophora teres test (barley)/shoot treatment, field experiment
Format: in vivo, Pyrenophora teres on barley
Details: shoot treatment after flag leaf emergence, 62.5 g/ha, scoring long-term effect, 41 days post-application
Description: Pyrenophora teres Test (Barley)/shoot Treatment, Field Experiment
To prepare a suitable preparation of active substance, a “commercially available” formulation of active substance or active substance combination is diluted with water to give the desired concentration.
The active substance preparation is applied at the application rate stated, after the flag leaf has emerged.
The evaluation is carried out at the point in time at which the disease symptoms are complete and readily recognizable. In this context, 0% means an efficacy which corresponds to that of the control, while an efficacy of 100% means that no disease is observed.
The expected efficacy in % of the untreated control was calculated using the equation
In this equation, x and y mean the efficacy—expressed in % of the untreated control—which the two products achieve when applied separately. If the actual efficacy of the active substance combination exceeds the value for the expected efficacy (E) as calculated by the above formula, then the effect is superadditive, i.e. a synergistic effect exists.

Structure (SMILES): Cn1cc(C(=O)Nc2ccc(F)cc2-c2ccc(Cl)c(Cl)c2)c(C(F)F)n1 [III-23, N-(3′,4′-dichloro-5-fluoro-1,1′-biphenyl-2-yl)-3-(difluoromethyl)-1-methyl-1H-pyrazole-4-carboxamide]
- Efficacy in % found: 40%

From US8039013B2, “Synergistic fungidical active substance combinations” (Bayer CropScience AG, priority 2004, dated 2011)
